Assay results taken from patent publication US10202377B2, “3-(1H-benzo[D]imidazol-2-yl)-1H-pyrazolo[3,4-C]pyridine and therapeutic uses thereof” (Samumed, LLC, priority 2014, dated 2019).

How the values were obtained:
[1] = system: primary human fibroblasts derived from IPF patients (LL29 cells); assay: Inhibition of fibrosis (αSMA staining) in TGF-β1-treated primary human fibroblasts from IPF patients; type: cell-based; conditions: Fibroblast, 96 h, TGF-β1 20 ng/mL, 4 days
Experimental: The above synthesized compounds were screened using primary human fibroblasts (derived from IPF patients) treated with TGF-β1 to determine their ability to inhibit the fibrotic process.
Compound Screening: Each compound was dissolved in DMSO as a 10 mM stock and used to prepare compound source plates. […] LL29 cells were plated at 1,500 cells/well in 80 μl/well F12 medium supplemented with 1% Fetal Bovine Serum. One hour after addition of the cells, TGF-β1 (Peprotech; 20 ng/mL) was added to the plates to induce fibrosis (ref. 1 and 2 above). Wells treated with TGF-β1 and containing DMSO were used as controls. Cells were incubated at 37° C. and 5% CO2 for 4 days. Following incubation for 4 days, SYTOX green nucleic acid stain (Life Technologies [Thermo Fisher Scientific]) was added to the wells at a final concentration of 1 uM and incubated at room temperature for 30 min. Cells were then fixed using 4% formaldehyde (Electron Microscopy Sciences), washed 3 times with PBS followed by blocking and permeabilization using 3% Bovine Serum Albumin (BSA; Sigma) and 0.3% Triton X-100 (Sigma) in PBS. Cells were then stained with antibody specific to α-smooth muscle actin (aSMA; Abcam) (ref. 1 and 2 above) in 3% Bovine Serum Albumin (BSA; Sigma) and 0.3% Triton X-100 (Sigma) in PBS, and incubated overnight at 4° C. […] Dead or apoptotic cells were excluded from analysis based on positive SYTOX green staining. % of total cells positive for αSMA were counted in each well and normalized to the average of 11 wells treated with TGF-β1 on the same plate using Dotmatics' Studies Software. […] The EC50 values are reported.

[2] = system: Wnt activity (Sp5-Luc reporter, SW480 colon carcinoma cells); assay: Sp5-Luc Wnt reporter gene screening assay in SW480 colon carcinoma cells; conditions: Homo sapiens
Experimental: The screening assay for Wnt activity is described as follows.
SW480 colon carcinoma cells were transduced with a lentiviral vector expressing luciferase with a human Sp5 promoter consisting of a sequence of eight TCF/LEF binding sites. SW480 cells stably expressing the Sp5-Luc reporter gene and a hygromycin resistance gene were selected by treatment with 150 μg/ml of hygromycin for 7 days. These stably transduced SW480 cells were expanded in cell culture and used for all further screening activities. For Sp5-Luc reporter gene assays, the cells were plated at 10,000 cells/well in 96-well plates with growth medium containing 10% fetal calf serum and incubated overnight at 37° C. and 5% CO2. […] Compound transfer from serially diluted source plates to assay plates containing the cells was accomplished using a pintool (Multimek 96, Beckman equipped with V&P Scientific FP1S50H pins) based liquid handling protocol. This protocol used a slotted pin to transfer 50 nl of compound from a source plate well to an assay plate well containing 50 μl of cells in growth medium. […] Control wells received 50 nl of DMSO treatment for normalization and calculating IC50 values. The treated cells were incubated at 37° C. and 5% CO2 for an additional forty-two hours. Following incubation, the growth medium was removed and 50 μl of BrightGlo luminescence reagent (Promega) was added to each well of the 96-well assay plates. The plates were placed on an orbital shaker for 5 min and then luminescence was quantified on the Victor3 (Perkin Elmer) plate reader.

| Structure (SMILES) | EC50 [1] [nM] | IC50 [2] [nM] |
| --- | --- | --- |
| CC(C)(C)C(=O)Nc1cncc(-c2cc3c(-c4nc5c(-c6ccoc6)cccc5[nH]4)n[nH]c3cn2)c1 [Compound 294, N-(5-(3-(4-(Furan-3-yl)-1H-benzo[d]imidazol-2-yl)-1H-pyrazolo[3,4-c]pyridin-5-yl)pyridin-3-yl)pivalamide] | 9 | 48.6 |
| CC(C)C(=O)Nc1cncc(-c2cc3c(-c4nc5c(-c6ccoc6)cccc5[nH]4)n[nH]c3cn2)c1 [Compound 295, N-(5-(3-(4-(Furan-3-yl)-1H-benzo[d]imidazol-2-yl)-1H-pyrazolo[3,4-c]pyridin-5-yl)pyridin-3-yl)isobutyramide] | 249 | 39.3 |
| CC(C)Nc1cncc(-c2cc3c(-c4nc5c(-c6ccoc6)cccc5[nH]4)n[nH]c3cn2)c1 [Compound 298, 5-(3-(4-(Furan-3-yl)-1H-benzo[d]imidazol-2-yl)-1H-pyrazolo[3,4-c]pyridin-5-yl)-N-isopropylpyridin-3-amine] | 9 | 12.9 |
| c1cc(-c2ccoc2)c2nc(-c3n[nH]c4cnc(-c5cncc(CNCC6CCCC6)c5)cc34)[nH]c2c1 [Compound 310, 1-Cyclopentyl-N-((5-(3-(4-(furan-3-yl)-1H-benzo[d]imidazol-2-yl)-1H-pyrazolo[3,4-c]pyridin-5-yl)pyridin-3-yl)methyl)methanamine] | 83 | 58.8 |
| CCC(=O)Nc1cncc(-c2cc3c(-c4nc5c(-c6cccs6)cccc5[nH]4)n[nH]c3cn2)c1 [Compound 313, N-(5-(3-(4-(Thiophen-2-yl)-1H-benzo[d]imidazol-2-yl)-1H-pyrazolo[3,4-c]pyridin-5-yl)pyridin-3-yl)propionamide] | 455 | 126 |
| CC(C)(C)C(=O)Nc1cncc(-c2cc3c(-c4nc5c(-c6cccs6)cccc5[nH]4)n[nH]c3cn2)c1 [Compound 320, N-(5-(3-(4-(Thiophen-2-yl)-1H-benzo[d]imidazol-2-yl)-1H-pyrazolo[3,4-c]pyridin-5-yl)pyridin-3-yl)pivalamide] | 96 | 56.6 |
| CC(C)C(=O)Nc1cncc(-c2cc3c(-c4nc5c(-c6cccs6)cccc5[nH]4)n[nH]c3cn2)c1 [Compound 321, N-(5-(3-(4-(Thiophen-2-yl)-1H-benzo[d]imidazol-2-yl)-1H-pyrazolo[3,4-c]pyridin-5-yl)pyridin-3-yl)isobutyramide] | 306 | 16.3 |
| CN(C)Cc1cncc(-c2cc3c(-c4nc5c(-c6cccs6)cccc5[nH]4)n[nH]c3cn2)c1 [Compound 325, N,N-Dimethyl-1-(5-(3-(4-(thiophen-2-yl)-1H-benzo[d]imidazol-2-yl)-1H-pyrazolo[3,4-c]pyridin-5-yl)pyridin-3-yl)methanamine] | 9 | 26.7 |
| CCCC(=O)Nc1cncc(-c2cc3c(-c4nc5c(-c6cccs6)cccc5[nH]4)n[nH]c3cn2)c1 [Compound 329, N-(5-(3-(4-(Thiophen-2-yl)-1H-benzo[d]imidazol-2-yl)-1H-pyrazolo[3,4-c]pyridin-5-yl)pyridin-3-yl)butyramide] | 67 | 56 |
| FC1(F)CCN(Cc2cncc(-c3cc4c(-c5nc6c(-c7cccs7)cccc6[nH]5)n[nH]c4cn3)c2)C1 [Compound 337, 5-(5-((3,3-Difluoropyrrolidin-1-yl)methyl)pyridin-3-yl)-3-(4-(thiophen-2-yl)-1H-benzo[d]imidazol-2-yl)-1H-pyrazolo[3,4-c]pyridine] | 9 | 90.8 |
| Fc1ccc(-c2cccc3[nH]c(-c4n[nH]c5cnc(-c6cncc(CN7CCCC7)c6)cc45)nc23)s1 [Compound 352, 3-(4-(5-Fluorothiophen-2-yl)-1H-benzo[d]imidazol-2-yl)-5-(5-(pyrrolidin-1-ylmethyl)pyridin-3-yl)-1H-pyrazolo[3,4-c]pyridine] | 9990 | 30.5 |
